# Assay results: patent publication US20230227566A1, “AMHRII-BINDING COMPOUNDS FOR PREVENTING OR TREATING LUNG CANCERS” (GAMAMABS PHARMA, priority 2017, published 2023)
# T1: human Anti-Mullerian Hormone type II Receptor (AMHRII) (human, UniProt Q16671 18-573)
# T1 construct: also called AMHR2; MISRII
# T1 sequence: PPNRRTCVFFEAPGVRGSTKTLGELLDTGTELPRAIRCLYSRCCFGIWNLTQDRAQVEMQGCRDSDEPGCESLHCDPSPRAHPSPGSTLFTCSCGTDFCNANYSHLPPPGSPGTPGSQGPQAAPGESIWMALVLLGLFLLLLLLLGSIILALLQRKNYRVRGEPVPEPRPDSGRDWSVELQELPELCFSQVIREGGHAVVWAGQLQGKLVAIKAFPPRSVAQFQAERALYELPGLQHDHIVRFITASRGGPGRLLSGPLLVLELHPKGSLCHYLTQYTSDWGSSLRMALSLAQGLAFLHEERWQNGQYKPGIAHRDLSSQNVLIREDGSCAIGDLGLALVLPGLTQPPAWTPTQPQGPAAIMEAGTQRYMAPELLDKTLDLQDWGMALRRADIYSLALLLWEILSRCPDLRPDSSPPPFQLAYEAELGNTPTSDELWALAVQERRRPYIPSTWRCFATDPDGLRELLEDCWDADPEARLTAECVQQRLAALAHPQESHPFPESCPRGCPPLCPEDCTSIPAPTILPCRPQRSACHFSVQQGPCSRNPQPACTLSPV
# T2: AMHRII (Homo sapiens, UniProt Q16671)
# T2 sequence (Q16671 18-573): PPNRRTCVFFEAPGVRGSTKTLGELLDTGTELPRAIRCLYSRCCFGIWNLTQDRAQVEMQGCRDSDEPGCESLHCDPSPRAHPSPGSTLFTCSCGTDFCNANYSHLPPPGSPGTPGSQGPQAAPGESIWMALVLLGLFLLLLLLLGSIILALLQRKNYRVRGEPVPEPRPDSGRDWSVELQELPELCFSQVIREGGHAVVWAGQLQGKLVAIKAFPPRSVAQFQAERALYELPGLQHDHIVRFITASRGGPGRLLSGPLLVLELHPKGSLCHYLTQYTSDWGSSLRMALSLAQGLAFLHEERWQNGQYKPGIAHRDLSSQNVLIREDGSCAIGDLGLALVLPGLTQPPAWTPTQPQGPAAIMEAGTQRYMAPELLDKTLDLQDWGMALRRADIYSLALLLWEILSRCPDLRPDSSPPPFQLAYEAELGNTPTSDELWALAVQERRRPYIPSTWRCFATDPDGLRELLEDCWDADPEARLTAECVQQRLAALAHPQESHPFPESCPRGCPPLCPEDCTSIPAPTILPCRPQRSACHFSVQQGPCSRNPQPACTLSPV
# B1: 3C23K anti-AMHRII monoclonal antibody (antibody, human IgG1, kappa, V domains shown)
# VH: QVRLVQSGAEVKKPGASVKVSCKASGYTFTSYHIHWVRQAPGQRLEWMGWIYPGDDSTKYSQKFQGRVTITRDTSASTAYMELSSLRSEDTAVYYCTRGDRFAYWGQGTLVTVSS
# VL: DIQMTQSPSTLSASVGDRVTITCRASSSVRYIAWYQQKPGKAPKLLTYPTSSLKSGVPSRFSGSGSGTEFTLTISSLQPDDFATYYCLQWSSYPWTFGGGTKVEIKR
# notes: Humanized mAb; GM102 is described as a low fucose form; also called GM102; 3C23K-AF
# B2: GM102: humanized anti-AMHRII (AMHR2) monoclonal antibody, low fucose; VH SEQ ID NO 19, VL SEQ ID NO 36 (antibody, V domains shown)
# VH: QVRLVQSGAEVKKPGASVKVSCKASGYTFTSYHIHWVRQAPGQRLEWMGWIYPGDDSTKYSQKFQGRVTITRDTSASTAYMELSSLRSEDTAVYYCTRGDRFAYWGQGTLVTVSS
# VL: DIQMTQSPSTLSASVGDRVTITCRASSSVRYIAWYQQKPGKAPKLLTYPTSSLKSGVPSRFSGSGSGTEFTLTISSLQPDDFATYYCLQWSSYPWTFGGGTKVEIK
# modifications: low fucose; Synthetic 3C23K/3C23; Synthetic 3C23K
# Legend:
# [1] = tolerability (body weight, clinical observations) in study XTS-1526
# Experimental: Adverse effect of the different treatments was determined as: • Relative Body Weight (RBW) will be calculated for each measurement by dividing the body weight by the body weight at the start of treatment. • Individual Body weight loss percent (% BWL)=100−(BWx/BW0×100), where BWx is the BW at any day during the treatment and BW0 is the BW on the 1st day of treatment.
# Mice were observed every day for physical appearance, behavior and clinical changes.
# Animals were sacrificed based on the following criteria: • Body weight loss (BWL)≥20% compared to the 1st day of treatment for 48 consecutive hours (3 measurements). • General alteration of behaviour or clinical signs. • Tumor volume ≥2000 mm^3.
# Mean Body weight loss percent (% BWL)=100−(mean BWx/mean BW0x 100), where BWx is the mean BW at any day during the treatment and BW0 is the mean BW on the 1st day of treatment.
# SC131 tumor model = assay: response of SC131 tumor model to standard-of-care agents; format: in vivo, mouse; details: data obtained on swiss nude mice
# From the text: Human tumor samples of various histological origins were obtained with informed consent from patients treated at cancer centers and established as transplantable xenografts in immunodeficient mice. The grafted samples are residual material from primary tumors or metastases obtained before or after treatment. These patient-derived xenograft (PDX) models have been established without prior in vitro culture and have been studied for histology, cytogenetics, genetic and other biological markers, and for their response to standard-of-care (SOC) therapies.
# SC131 is low responder to docetaxel and to the combination cisplatin/gemcitabine, and no responder to the other agents tested (data obtained on swiss nude mice).
# [2] = tested on: SC131 patient-derived non-small-cell lung xenograft; assay: antitumor efficacy study XTS-1526 in SC131 patient-derived xenograft; details: for CR (complete regression), number of mice / TFS (Tumor Free Survivor), number of mice / TS (Tumor Stabilization), number of mice / PR (partial regression), number of mice: 9 mice per group; for antitumor efficacy compared with control group 1 (in words): Mann-Whitney test vs vehicle; for TGDI (Tumor Growth Delay Index): TGD treated/TGD control, same regimens; for TS (Tumor Stabilization), number of mice: constant tumor size during at least 3 consecutive measurements; for Best T/C%: day of best T/C D16 (G6: D11); for T/C % at day 16: mean tumor volume treated/control x100, day 16; for median TGD x 5: time to reach 5x D0 tumor volume, GM102 20 mg/kg IV 2qwk, docetaxel 20 mg/kg slow IV D0, cisplatin 5 + gemcitabine 100 mg/kg IP qwk; for PR (partial regression), number of mice: tumor size lower than initial during at least 3 consecutive measurements;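 on all read-outs here: subcutaneous tumor fragments grafted in mice, tumor volume from caliper diameters (length × width²/2) taken three times weekly during treatment, each treated group compared against vehicle controls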
# From the text: Fifty-four (54) mice with a subcutaneously growing SC131 tumor (P22.1.3/0) between 62.5 and 220.5 mm^3 were allocated to treatment when the mean and median tumor volume reached 130.76 and 126.00 mm^3 respectively.
# Tumors of the same passage were transplanted subcutaneously onto 3-24 mice (donor mice, passage (n−1)). When these tumors reached 700 to 2000 mm^3, donor mice were sacrificed by cervical dislocation, tumors were aseptically excised and dissected. After removing necrotic areas, tumors were cut into fragments measuring approximately 20 mm^3 and transferred in culture medium before grafting.
# Eighty-nine (89) mice were anaesthetized with 100 mg/kg ketamine hydrochloride (batch 5D92—exp: 03-2017, Virbac) and 10 mg/kg xylazine (batch KP0AX9X, Bayer), and then skin was aseptized with a chlorhexidine solution, incised at the level of the interscapular region, and a 20 mm^3 tumor fragment was placed in the subcutaneous tissue. Skin was closed with clips.
# Treatments were randomly attributed to boxes housing up to 5 mice and were initiated 18 days post implantation of the tumor (60% inclusion rate with staggered inclusion). The study was staggered-included with 5 mice included per group first, then 4 mice included per group 2 days later. The study was terminated following 31 days after the start of treatment.
# For the additional groups 7 and 8, tumor size was higher and more heterogeneous. Animals were included 32 days post implantation.
# Tumor volume was evaluated by measuring tumor diameters, with a caliper, three times a week during the treatment period. The formula TV (mm^3)=[length (mm)×width (mm)^2]/2 was used, where the length and the width are the longest and the shortest diameters of the tumor, respectively.
# For the groups 1 to 6, each group initially included 9 mice. For the groups 7 and 8, each group initially included 8 mice.
# Individual tumor growth delays (TGD) was calculated as the time in days required for individual tumors to reach 3- to 5-fold the initial tumor volume.
# The tumor growth delay index (TGDI) was calculated as the median growth delay in the treated group divided by the median growth delay in the control group.
# The percentage ratio between the mean tumor volume of a treated group (T) and the mean tumor volume of the control group (C) was calculated.
# Statistical analysis was done for each measurement by Mann-Whitney non parametric comparison test. Each treated group was compared with control group.
# Tumor Stabilization (TS) was defined as the number of mice presenting a constant tumor size during at least 3 consecutive measurements.
# Partial tumor Regression (PR) was defined as the number of mice presenting a tumor size lower than initial tumor size during at least 3 consecutive measurements.
# [3] = target: T1, human Anti-Mullerian Hormone type II …; assay: immunohistochemistry (immunoperoxidase, biotinylated antibody) on AMHR2-transfected COV434 cells
# AMHRII = target: T2, AMHRII; assay: binding of 3C23K antibody to AMHRII (Kd)
# [4] = tested on: LXFE2226 squamous non-small cell lung cancer model tumor xenografts; assay: antitumor efficacy in LXFE2226 tumor xenografts; format: in vivo, mouse
# From the text: Tumor fragments were obtained from xenografts in serial passage in nude mice. After removal from donor mice, tumors were cut into fragments (3-4 mm edge length) and placed in PBS containing 10% penicillin/streptomycin. Recipient animals were anesthetized by inhalation of isoflurane and received unilateral or bilateral tumor implants subcutaneously in the flank.
# LXFE2226 squamous non-small cell lung cancer model tumor xenografts were implanted subcutaneously with one tumor per mouse (NMRI-Foxn1^nu from Charles River). The experiment consisted of two groups of mice from which three of them were euthanized on day 15 for detecting membranous AMHRII expression by flow cytometry. The first group was a vehicle control group and the second group received the investigational antibody GM102, which was administered intraperitoneally (i.p.) twice weekly at a dose level of 20 mg/kg.
# Antitumor efficacy was evaluated as minimum T/C value by comparison of group median relative tumor volumes (RTVs) on the days where the optimal efficacy was reached. The experiment was terminated on day 43 after a two-week dosing-free observation period.
# [5] = tested on: AMHR2-transfected human tumor cell lines; details: cited from earlier work
molecule,measurement,setting,value
CC(=O)O[C@@]12CO[C@@H]1C[C@H](O)[C@@]1(C)C(=O)[C@H](O)C3=C(C)[C@@H](OC(=O)[C@H](O)[C@@H](NC(=O)OC(C)(C)C)c4ccccc4)C[C@@](O)([C@@H](OC(=O)c4ccccc4)[C@H]21)C3(C)C [Docetaxel],mice that had to be sacrificed before the end of the study,"[1]; despite DietGel, 9 mice per group (groups 7, 8: 8)",4
same,maximum individual body weight loss,"[1]; mouse, in vivo",23.8%
same,maximum mean body weight loss,"[1]; mouse, in vivo",17.0%
same,response of SC131 to the agent (in words),SC131 tumor model,low responder
same,"CR (complete regression), number of mice",[2],0
same,"TFS (Tumor Free Survivor), number of mice",[2],0
same,antitumor efficacy compared with control group 1 (in words),[2],strong and statistically significant
same,TGDI (Tumor Growth Delay Index),[2],>2.71
same,TGDI (Tumor Growth Delay Index),[2]; listed as docetaxel,> 2.71
same,"TS (Tumor Stabilization), number of mice",[2],7
same,"TS (Tumor Stabilization), number of mice",[2]; listed as docetaxel,7/9
same,"Mann-Whitney analysis on tumor volume vs vehicle, day 4",[2]; day 4,** (P < 0.01)
same,"Mann-Whitney analysis on tumor volume vs vehicle, day 7",[2]; day 7,*** (P < 0.001)
same,"Mann-Whitney analysis on tumor volume vs vehicle, day 9",[2]; day 9,*** (P < 0.001)
same,"Mann-Whitney analysis on tumor volume vs vehicle, day 11",[2]; day 11,*** (P < 0.001)
same,"Mann-Whitney analysis on tumor volume vs vehicle, day 14",[2]; day 14,*** (P < 0.001)
same,"Mann-Whitney analysis on tumor volume vs vehicle, day 16",[2]; day 16,*** (P < 0.001)
same,Best T/C%,[2],11.00%
same,Best T/C%,[2]; listed as docetaxel,11.00%
same,T/C % at day 16,[2],11.00%
same,median TGD x 5,[2],>28 days
same,"PR (partial regression), number of mice",[2],2
same,"PR (partial regression), number of mice",[2]; listed as docetaxel,2/9
B1,binding result,[3],binds
B2,Kd,AMHRII,55.3 pM
same,mice found dead,"[1]; 9 mice per group (groups 7, 8: 8)",Mouse #27 was found dead on day 27
same,maximum mean body weight loss,"[1]; SC131-bearing nude mice (cachectic tumor), day of maximum differs per group",9.8%
same,maximum individual body weight loss,"[1]; SC131-bearing nude mice, day of maximum differs per group",16.8%
same,tolerability (in words),"[1]; mouse, in vivo, iv, 20 mg/kg",well tolerated
same,tumor volume at Day 28 vs vehicle (in words),"[4]; Day 28, p<0.001",drastically reduction of the tumor volume
same,anti-tumor activity (in words),"[4]; GM102 20 mg/kg i.p. twice weekly, NMRI-Foxn1nu mice",strong anti-tumor activity
same,efficacy in combination with carboplatin and paclitaxel (in words),"[5]; Jacquet A., Cancer Res, 2012",synergistic
same,antitumor efficacy (in words),"[5]; mouse, in vivo",display antitumor efficacy
same,"CR (complete regression), number of mice",[2],0
same,"TFS (Tumor Free Survivor), number of mice",[2],0
same,tumor growth inhibition,"[2]; GM102 alone, did not reach statistical significance",25%
same,antitumor efficacy compared with control group 1 (in words),[2],did not demonstrate any antitumor efficacy
same,TGDI (Tumor Growth Delay Index),[2],1.33
same,"TS (Tumor Stabilization), number of mice",[2],0
same,Best T/C%,[2],74.68%
same,T/C % at day 16,[2],74.68%
same,median TGD x 5,[2],13.70 days
same,"PR (partial regression), number of mice",[2],0
